Laboratory results published in patent US6888015B2, “Sphingolipid synthesis inhibitor” (Japan Science and Technology Agency, priority 2001, dated 2005).

What was measured:
CHO cells = test: Contents of sphingolipids and phospholipids in cells; assay type: cell-based, Chinese hamster; details: 2.5 μM, 2 days
Procedure: CHO cells are seeded at density of 10×10^6 cells in 20 mL of F12 medium containing 10% NBS by per 150-mm dish, and incubated at 33° C. overnight. Then, after washed twice with 10 mL of serum-free F 12 medium, the cells are incubated in 20 mL of Nutridoma medium supplemented with or without 2.5 μM HPA-12 for 2 days. Each medium is replaced every 24 hours. After washed with PBS, the cells are harvested by scraping, and re-suspended in PBS. Then, lipids are extracted from the cells.
For analysis of phospholipids, extracted lipids are separated by TLC with a solvent of chloroform/methanol/acetic acid/H2O (volume ratio, 25:15:4:2).
Phosphorous contents in phospholipids are measured by the method disclosed in Document 4.
Contents of GlcCer and N-acetyl neuraminil lactosylseramide (GM3) are determined by densitometric analysis of lipids stained with Coomassie Brilliant Blue disclosed in Document 5.
Cer contents are determined by using a sn-1,2-diacylglycerol assay reagent kit (Amersham Pharmcia Biotech).

SM synthase = SM synthase enzyme assay, CHO membrane fraction; assay type: biochemical, Chinese hamster

CCCCCCCCCCCC(=O)NC(CO)CC(O)c1ccccc1 (stereo not drawn) [HPA-12, N-(3-hydroxy-1-hydroxymethyl-3-phenylprol)dodecaneamide]
content of GM3 (CHO cells): 120 % of the drug-untreated contro | content of GlcCer (CHO cells): 150 % of the drug-untreated contro | content of SM, lower than the drug-free control level by (CHO cells): 30% | content of ceramide vs untreated (CHO cells): no significant difference | Cer content (CHO cells; CHO cells): 0.40 ± 0.13 nmol/mg protein | GM3 content (CHO cells; CHO cells): 8.5 ± 0.8 nmol/mg protein | GlcCer content (CHO cells; CHO cells): 1.4 ± 0.1 nmol/mg protein | PC content (composition of phospholipids) (CHO cells; CHO cells): 47.5 ± 0.2 % of total lipids recovered | PE content (composition of phospholipids) (CHO cells; CHO cells): 30.6 ± 0.3 % of total lipids recovered | PI/PS content (composition of phospholipids) (CHO cells; CHO cells): 13.4 ± 0.3 % of total lipids recovered | SM content (composition of phospholipids) (CHO cells; CHO cells): 8.4 ± 0.1 % of total lipids recovered | content of total phospholipids (CHO cells; drug-treated cells): 315±2 nmol/mg protein | C6-NBD-SM formed (SM synthase activity) (SM synthase; 20 μM, substrate C6-NBD-Cer): 168.1 ± 1.7 pmol/mg protein/10 minutes | inhibition of SM synthase (SM synthase; 20 μM, substrate C6-NBD-Cer): Neither of SM synthase nor GlcCer synthase is inhibited | inhibition of SM synthase activity (SM synthase; substrate C5-DMB-Cer, data not shown): not observed
